According to patent US10519152B2, “Compounds and their use in treating cancer” (AstraZeneca AB, priority 2017, dated 2019):

Biological target: T1, Estrogen Receptor (ERα) in MCF-7 human ductal carcinoma breast cell line (Homo sapiens, UniProt P03372)
T1 construct: endogenous in cells; host or cells: MCF-7
T1 sequence (P03372 1-595): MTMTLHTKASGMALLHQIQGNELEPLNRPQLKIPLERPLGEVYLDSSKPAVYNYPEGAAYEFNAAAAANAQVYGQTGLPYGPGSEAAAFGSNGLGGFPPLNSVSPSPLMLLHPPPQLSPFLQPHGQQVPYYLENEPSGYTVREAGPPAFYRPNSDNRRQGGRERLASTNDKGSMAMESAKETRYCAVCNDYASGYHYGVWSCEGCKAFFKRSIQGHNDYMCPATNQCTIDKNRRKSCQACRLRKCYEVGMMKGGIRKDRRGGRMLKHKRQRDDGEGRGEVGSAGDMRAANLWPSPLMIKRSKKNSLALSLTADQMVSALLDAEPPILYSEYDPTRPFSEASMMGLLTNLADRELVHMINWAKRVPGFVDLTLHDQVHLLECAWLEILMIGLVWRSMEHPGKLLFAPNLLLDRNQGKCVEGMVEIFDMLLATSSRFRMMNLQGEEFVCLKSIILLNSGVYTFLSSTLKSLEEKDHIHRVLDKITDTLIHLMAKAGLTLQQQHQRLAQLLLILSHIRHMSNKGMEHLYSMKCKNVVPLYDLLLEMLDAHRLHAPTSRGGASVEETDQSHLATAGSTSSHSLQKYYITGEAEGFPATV
Assay: MCF-7 ER degradation assay (cell based immuno-fluorescence)
Details: MCF-7 cells; for ER degradation ≥ 90% at 0.3 μM: ER degradation by fulvestrant at 0.3 μM is defined as 100%; for DC50: 18-22 hours incubation, 50% reduction of ERα expression, single experiment or average of two or more, read-out: MCF-7 ER degradation IC50
Method in brief: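 MCF-7 human ductal carcinoma breast cells were seeded at 3.75×10^4 cells per mL (40 μL per well) in 384 well plates with phenol red free DMEM containing 2 mM L-Glutamine and 5% (v/v) Charcoal/Dextran treated foetal calf serum. After overnight culture, compounds were acoustically dispensed, incubated 18-22 hours, then cells were formaldehyde-fixed and immunostained for ERα.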

Compound | ER degradation ≥ 90% at 0.3 μM | DC50 [nM]
Cc1ncsc1-c1ccc(CNC(=O)[C@@H]2C[C@@H](O)CN2C(=O)[C@@H](NC(=O)COCCCCOCCOc2cc(F)c([C@@H]3c4[nH]c5ccccc5c4C[C@@H](C)N3CC(C)(C)F)c(F)c2)C(C)(C)C)cc1 [Example 16, (2S,4R)-1-((S)-2-(2-(4-(2-(3,5-Difluoro-4-((1R,3R)-2-(2-fluoro-2-methylpropyl)-3-methyl-2,3,4,9-tetrahydro-1H-pyrido[3,4-b]indol-1-yl)phenoxy)ethoxy)butoxy)acetamido)-3,3-dimethylbutanoyl)-4-hydroxy-N-(4-(4-methylthiazol-5-yl)benzyl)pyrrolidine-2-carboxamide] | •• | 0.8
Cc1ncsc1-c1ccc(CNC(=O)[C@@H]2C[C@@H](O)CN2C(=O)[C@@H](NC(=O)COCCCCCOc2ccc([C@@H]3c4[nH]c5ccccc5c4C[C@@H](C)N3CC(F)F)nc2)C(C)(C)C)cc1 [Example 17, (2S,4R)-1-((S)-2-(2-((5-((6-((1S,3R)-2-(2,2-Difluoroethyl)-3-methyl-2,3,4,9-tetrahydro-1H-pyrido[3,4-b]indol-1-yl)pyridin-3-yl)oxy)pentyl)oxy)acetamido)-3,3-dimethylbutanoyl)-4-hydroxy-N-(4-(4-methylthiazol-5-yl)benzyl)pyrrolidine-2-carboxamide] | • | 41
Cc1ncsc1-c1ccc(CNC(=O)[C@@H]2C[C@@H](O)CN2C(=O)[C@@H](NC(=O)COCCCCCOc2cc(F)c([C@@H]3c4[nH]c5ccccc5c4C[C@@H](C)N3CC(C)(C)F)c(F)c2)C(C)(C)C)cc1 [Example 18, (2S,4R)-1-((S)-2-(2-((5-(3,5-Difluoro-4-((1R,3R)-2-(2-fluoro-2-methylpropyl)-3-methyl-2,3,4,9-tetrahydro-1H-pyrido[3,4-b]indol-1-yl)phenoxy)pentyl)oxy)acetamido)-3,3-dimethylbutanoyl)-4-hydroxy-N-(4-(4-methylthiazol-5-yl)benzyl)pyrrolidine-2-carboxamide] | • | 1
Cc1ncsc1-c1ccc(CNC(=O)[C@@H]2C[C@@H](O)CN2C(=O)[C@@H](NC(=O)COc2cccc(COc3cc(F)c([C@@H]4c5[nH]c6ccccc6c5C[C@@H](C)N4CC(C)(C)F)c(F)c3)c2)C(C)(C)C)cc1 [Example 20, (2S,4R)-1-((S)-2-(2-(3-((3,5-difluoro-4-((1R,3R)-2-(2-fluoro-2-methylpropyl)-3-methyl-2,3,4,9-tetrahydro-1H-pyrido[3,4-b]indol-1-yl)phenoxy)methyl)phenoxy)acetamido)-3,3-dimethylbutanoyl)-4-hydroxy-N-(4-(4-methylthiazol-5-yl)benzyl)pyrrolidine-2-carboxamide] | • | 1.7
Cc1ncsc1-c1ccc(CNC(=O)[C@@H]2C[C@@H](O)CN2C(=O)[C@@H](NC(=O)COCC/C=C/CCOc2cc(F)c([C@@H]3c4[nH]c5ccccc5c4C[C@@H](C)N3CC(C)(C)F)c(F)c2)C(C)(C)C)cc1 [Example 22, (2S,4R)-1-((S)-2-(2-(((E)-6-(3,5-Difluoro-4-((1R,3R)-2-(2-fluoro-2-methylpropyl)-3-methyl-2,3,4,9-tetrahydro-1H-pyrido[3,4-b]indol-1-yl)phenoxy)hex-3-en-1-yl)oxy)acetamido)-3,3-dimethylbutanoyl)-4-hydroxy-N-(4-(4-methylthiazol-5-yl)benzyl)pyrrolidine-2-carboxamide] | • | 3
Cc1ncsc1-c1ccc(CNC(=O)[C@@H]2C[C@@H](O)CN2C(=O)[C@@H](NC(=O)COCCC(C)(C)CCOc2cc(F)c([C@@H]3c4[nH]c5ccccc5c4C[C@@H](C)N3CC(C)(C)F)c(F)c2)C(C)(C)C)cc1 [Example 23, (2S,4R)-1-((S)-2-(2-((5-(3,5-Difluoro-4-((1R,3R)-2-(2-fluoro-2-methylpropyl)-3-methyl-2,3,4,9-tetrahydro-1H-pyrido[3,4-b]indol-1-yl)phenoxy)-3,3-dimethylpentyl)oxy)acetamido)-3,3-dimethylbutanoyl)-4-hydroxy-N-(4-(4-methylthiazol-5-yl)benzyl)pyrrolidine-2-carboxamide] | •• | 1
Cc1ncsc1-c1ccc(CNC(=O)[C@@H]2C[C@@H](O)CN2C(=O)[C@@H](NC(=O)COCCCOCCOc2ccc([C@@H]3c4[nH]c5ccccc5c4C[C@@H](C)N3CC(F)F)nc2)C(C)(C)C)cc1 [Example 26, (2S,4R)-1-((S)-2-(2-(3-(2-((6-((1S,3R)-2-(2,2-Difluoroethyl)-3-methyl-2,3,4,9-tetrahydro-1H-pyrido[3,4-b]indol-1-yl)pyridin-3-yl)oxy)ethoxy)propoxy)acetamido)-3,3-dimethylbutanoyl)-4-hydroxy-N-(4-(4-methylthiazol-5-yl)benzyl)pyrrolidine-2-carboxamide] | • | 7.5
Cc1ncsc1-c1ccc([C@H](C)NC(=O)[C@@H]2C[C@@H](O)CN2C(=O)[C@@H](NC(=O)COCCCCCOc2cc(F)c([C@@H]3c4[nH]c5ccccc5c4C[C@@H](C)N3CC(C)(C)F)c(F)c2)C(C)(C)C)cc1 [Example 28, (2S,4R)-1-((S)-2-(2-((5-(3,5-Difluoro-4-((1R,3R)-2-(2-fluoro-2-methylpropyl)-3-methyl-2,3,4,9-tetrahydro-1H-pyrido[3,4-b]indol-1-yl)phenoxy)pentyl)oxy)acetamido)-3,3-dimethylbutanoyl)-4-hydroxy-N—((S)-1-(4-(4-methylthiazol-5-yl)phenyl)ethyl)pyrrolidine-2-carboxamide] | • | 0.8
COC(=O)[C@@H](C)CN1[C@H](c2c(F)cc(OCCOCCOCCOCC(=O)N[C@H](C(=O)N3C[C@H](O)C[C@H]3C(=O)NCc3ccc(-c4scnc4C)cc3)C(C)(C)C)cc2F)c2[nH]c3ccccc3c2C[C@H]1C [Example 29] | •• | 2.4
Cc1ncsc1-c1ccc(CNC(=O)[C@@H]2C[C@@H](O)CN2C(=O)[C@@H](NC(=O)CCCCCCCCCCOc2cc(F)c([C@@H]3c4[nH]c5ccccc5c4C[C@@H](C)N3CC(C)(C)F)c(F)c2)C(C)(C)C)cc1 [Example 32, (2S,4R)-1-((S)-2-(11-(3,5-Difluoro-4-((1R,3R)-2-(2-fluoro-2-methylpropyl)-3-methyl-2,3,4,9-tetrahydro-1H-pyrido[3,4-b]indol-1-yl)phenoxy)undecanamido)-3,3-dimethylbutanoyl)-4-hydroxy-N-(4-(4-methylthiazol-5-yl)benzyl)pyrrolidine-2-carboxamide] | • | 13
Cc1ncsc1-c1ccc(CNC(=O)[C@@H]2C[C@@H](OC(=O)[C@@H]3CCCN3)CN2C(=O)[C@@H](NC(=O)CCCCCCCCCCOc2cc(F)c([C@@H]3c4[nH]c5ccccc5c4C[C@@H](C)N3CC(C)(C)F)c(F)c2)C(C)(C)C)cc1 [Example 33, (3R,5S)-1-((S)-2-(11-(3,5-Difluoro-4-((1R,3R)-2-(2-fluoro-2-methylpropyl)-3-methyl-2,3,4,9-tetrahydro-1H-pyrido[3,4-b]indol-1-yl)phenoxy)undecanamido)-3,3-dimethylbutanoyl)-5-((4-(4-methylthiazol-5-yl)benzyl)carbamoyl)pyrrolidin-3-yl L-prolinate] | •• | 29
CC(=O)O[C@@H]1C[C@@H](C(=O)NCc2ccc(-c3scnc3C)cc2)N(C(=O)[C@@H](NC(=O)COCCOCCOCCOc2cc(F)c([C@@H]3c4[nH]c5ccccc5c4C[C@@H](C)N3CC(C)(C)F)c(F)c2)C(C)(C)C)C1 [Example 34, (3R,5S)-1-((S)-2-(tert-Butyl)-14-(3,5-difluoro-4-((1R,3R)-2-(2-fluoro-2-methylpropyl)-3-methyl-2,3,4,9-tetrahydro-1H-pyrido[3,4-b]indol-1-yl)phenoxy)-4-oxo-6,9,12-trioxa-3-azatetradecanoyl)-5-((4-(4-methylthiazol-5-yl)benzyl)carbamoyl)pyrrolidin-3-yl Acetate] | • | 1
Cc1ncsc1-c1ccc(CNC(=O)[C@@H]2C[C@@H](O)CN2C(=O)[C@@H](NC(=O)COCCOCCOCCOCCOc2cc(F)c([C@@H]3c4[nH]c5ccccc5c4C[C@@H](C)N3CC(C)(C)F)c(F)c2)C(C)(C)C)cc1 [Example 37, (2S,4R)-1-((S)-2-(tert-Butyl)-17-(3,5-difluoro-4-((1R,3R)-2-(2-fluoro-2-methylpropyl)-3-methyl-2,3,4,9-tetrahydro-1H-pyrido[3,4-b]indol-1-yl)phenoxy)-4-oxo-6,9,12,15-tetraoxa-3-azaheptadecanoyl)-4-hydroxy-N-(4-(4-methylthiazol-5-yl)benzyl)pyrrolidine-2-carboxamide] | •• | 3
